# How the values were obtained:
# Assay in all cases: DSF thermal shift
# Type in all cases: binding
# Details in all cases: 10 µM inhibitor; read-out: Tm shift
# MPSK1 = biological target: T1, MPSK1 (Homo sapiens, UniProt O75716)
# T1 construct: purchased Nanosyn (enzymatic panel); SGC in-house recombinant human kinases (DSF panel); Invitrogen (ALK1-6)
# Experimental: (§1) Thermal melting experiments were performed using a Real Time PCR machine Mx3005p (Stratagene) with a protein concentration of 1–2 µM and 10 µM inhibitor as described previously, [25]. […] Recombinant human kinases for DSF screening were prepared by SGC using published methods, [36].
# AMPKα2 = biological target: T2, AMPKα2 (Homo sapiens, UniProt P54646)
# T2 construct: purchased Nanosyn (enzymatic panel); SGC in-house recombinant human kinases (DSF panel); Invitrogen (ALK1-6)
# T2 sequence (P54646 whole entry): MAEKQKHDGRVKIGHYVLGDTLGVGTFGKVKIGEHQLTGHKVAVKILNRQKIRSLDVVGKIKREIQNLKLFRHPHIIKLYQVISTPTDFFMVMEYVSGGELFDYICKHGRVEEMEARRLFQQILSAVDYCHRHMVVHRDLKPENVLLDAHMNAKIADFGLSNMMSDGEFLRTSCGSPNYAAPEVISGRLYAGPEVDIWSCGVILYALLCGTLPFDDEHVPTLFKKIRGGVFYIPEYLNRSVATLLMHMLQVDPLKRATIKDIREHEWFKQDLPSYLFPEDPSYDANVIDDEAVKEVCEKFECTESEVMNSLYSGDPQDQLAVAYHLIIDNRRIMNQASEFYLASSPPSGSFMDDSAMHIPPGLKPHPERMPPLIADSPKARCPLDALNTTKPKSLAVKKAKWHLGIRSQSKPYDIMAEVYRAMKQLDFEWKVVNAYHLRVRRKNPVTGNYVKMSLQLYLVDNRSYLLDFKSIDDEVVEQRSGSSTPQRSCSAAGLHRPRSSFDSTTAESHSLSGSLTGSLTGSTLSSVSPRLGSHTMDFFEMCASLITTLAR
# Experimental: as §1
# MST3 = biological target: T3, MST3 (Homo sapiens, UniProt Q9Y6E0)
# T3 construct: purchased Nanosyn (enzymatic panel); SGC in-house recombinant human kinases (DSF panel); Invitrogen (ALK1-6)
# T3 sequence (Q9Y6E0 whole entry): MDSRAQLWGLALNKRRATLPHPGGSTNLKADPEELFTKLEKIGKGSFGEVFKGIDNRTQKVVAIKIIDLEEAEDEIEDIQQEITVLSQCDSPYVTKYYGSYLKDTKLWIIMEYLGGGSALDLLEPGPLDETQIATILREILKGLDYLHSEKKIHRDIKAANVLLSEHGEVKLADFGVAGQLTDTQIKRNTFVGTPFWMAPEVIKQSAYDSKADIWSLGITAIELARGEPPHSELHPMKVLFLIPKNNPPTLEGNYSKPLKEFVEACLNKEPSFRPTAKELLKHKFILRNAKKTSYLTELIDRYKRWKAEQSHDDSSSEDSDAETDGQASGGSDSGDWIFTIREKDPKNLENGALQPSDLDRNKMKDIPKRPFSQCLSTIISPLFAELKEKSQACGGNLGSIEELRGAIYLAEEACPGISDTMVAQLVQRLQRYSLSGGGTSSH
# Experimental: as §1
# JNK1 = biological target: T4, JNK1 (Homo sapiens, UniProt P45983)
# T4 construct: purchased Nanosyn (enzymatic panel); SGC in-house recombinant human kinases (DSF panel); Invitrogen (ALK1-6)
# T4 sequence (P45983 whole entry): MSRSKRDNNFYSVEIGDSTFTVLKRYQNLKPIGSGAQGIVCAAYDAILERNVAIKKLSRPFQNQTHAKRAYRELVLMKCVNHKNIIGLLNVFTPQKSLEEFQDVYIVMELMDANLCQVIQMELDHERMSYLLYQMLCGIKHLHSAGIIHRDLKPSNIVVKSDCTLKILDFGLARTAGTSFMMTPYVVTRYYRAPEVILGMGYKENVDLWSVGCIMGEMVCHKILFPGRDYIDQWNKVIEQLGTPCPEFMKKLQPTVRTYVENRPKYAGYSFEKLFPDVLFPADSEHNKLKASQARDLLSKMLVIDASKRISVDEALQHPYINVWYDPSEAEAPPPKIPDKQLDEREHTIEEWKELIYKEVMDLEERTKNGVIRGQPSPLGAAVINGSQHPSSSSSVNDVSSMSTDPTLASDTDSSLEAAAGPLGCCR
# Experimental: as §1
# SLK = biological target: T5, SLK (Homo sapiens, UniProt Q9H2G2)
# T5 construct: purchased Nanosyn (enzymatic panel); SGC in-house recombinant human kinases (DSF panel); Invitrogen (ALK1-6)
# T5 sequence (Q9H2G2 whole entry): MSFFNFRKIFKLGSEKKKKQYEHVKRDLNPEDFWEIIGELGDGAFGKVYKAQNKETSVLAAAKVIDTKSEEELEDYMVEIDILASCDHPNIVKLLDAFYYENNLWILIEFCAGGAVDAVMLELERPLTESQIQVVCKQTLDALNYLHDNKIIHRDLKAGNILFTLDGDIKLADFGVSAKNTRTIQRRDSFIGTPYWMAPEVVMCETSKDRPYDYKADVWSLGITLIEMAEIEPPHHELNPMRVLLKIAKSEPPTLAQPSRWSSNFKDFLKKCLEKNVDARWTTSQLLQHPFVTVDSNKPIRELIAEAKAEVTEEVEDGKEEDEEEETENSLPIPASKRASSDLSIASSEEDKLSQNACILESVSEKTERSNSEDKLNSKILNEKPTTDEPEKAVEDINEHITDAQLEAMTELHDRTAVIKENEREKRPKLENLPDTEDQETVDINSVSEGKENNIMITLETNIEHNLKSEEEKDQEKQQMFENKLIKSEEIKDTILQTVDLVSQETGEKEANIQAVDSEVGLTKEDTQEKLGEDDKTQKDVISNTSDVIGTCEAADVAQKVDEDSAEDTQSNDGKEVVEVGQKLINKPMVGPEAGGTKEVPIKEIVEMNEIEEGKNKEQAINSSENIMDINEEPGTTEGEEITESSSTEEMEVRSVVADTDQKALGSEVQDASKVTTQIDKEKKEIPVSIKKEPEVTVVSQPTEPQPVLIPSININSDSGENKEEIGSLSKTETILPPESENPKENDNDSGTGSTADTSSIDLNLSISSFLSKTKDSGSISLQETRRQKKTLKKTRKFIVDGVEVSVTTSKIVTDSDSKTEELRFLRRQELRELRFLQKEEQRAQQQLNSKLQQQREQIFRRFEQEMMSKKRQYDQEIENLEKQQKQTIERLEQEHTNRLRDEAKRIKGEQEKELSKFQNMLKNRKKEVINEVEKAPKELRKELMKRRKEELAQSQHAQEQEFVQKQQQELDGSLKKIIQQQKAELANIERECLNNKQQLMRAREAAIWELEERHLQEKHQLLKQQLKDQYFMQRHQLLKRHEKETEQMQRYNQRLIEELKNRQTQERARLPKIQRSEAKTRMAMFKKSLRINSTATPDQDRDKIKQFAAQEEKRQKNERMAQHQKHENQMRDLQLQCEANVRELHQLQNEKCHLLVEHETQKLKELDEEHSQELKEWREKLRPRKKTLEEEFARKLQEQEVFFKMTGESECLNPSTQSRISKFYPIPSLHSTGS
# Experimental: as §1
# CLK2 = biological target: T6, CLK2 (Homo sapiens, UniProt P49760)
# T6 construct: purchased Nanosyn (enzymatic panel); SGC in-house recombinant human kinases (DSF panel); Invitrogen (ALK1-6)
# T6 sequence (P49760 whole entry): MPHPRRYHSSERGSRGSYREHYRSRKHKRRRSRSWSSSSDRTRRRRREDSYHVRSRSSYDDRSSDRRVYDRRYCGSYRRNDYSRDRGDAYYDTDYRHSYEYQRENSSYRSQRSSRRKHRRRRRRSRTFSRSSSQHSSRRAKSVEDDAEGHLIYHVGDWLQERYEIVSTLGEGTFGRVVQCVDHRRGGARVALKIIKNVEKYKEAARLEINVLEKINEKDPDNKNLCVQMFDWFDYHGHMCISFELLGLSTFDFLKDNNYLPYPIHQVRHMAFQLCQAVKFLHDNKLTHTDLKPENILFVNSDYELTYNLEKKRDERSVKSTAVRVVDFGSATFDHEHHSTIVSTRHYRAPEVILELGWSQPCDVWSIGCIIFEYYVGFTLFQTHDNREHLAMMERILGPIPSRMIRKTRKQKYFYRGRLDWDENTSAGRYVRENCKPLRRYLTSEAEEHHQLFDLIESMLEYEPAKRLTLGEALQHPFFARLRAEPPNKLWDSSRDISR
# Experimental: as §1
# ALK4 = biological target: T7, ALK4 (Homo sapiens, UniProt P36896)
# T7 construct: purchased Invitrogen
# T7 sequence (P36896 24-505): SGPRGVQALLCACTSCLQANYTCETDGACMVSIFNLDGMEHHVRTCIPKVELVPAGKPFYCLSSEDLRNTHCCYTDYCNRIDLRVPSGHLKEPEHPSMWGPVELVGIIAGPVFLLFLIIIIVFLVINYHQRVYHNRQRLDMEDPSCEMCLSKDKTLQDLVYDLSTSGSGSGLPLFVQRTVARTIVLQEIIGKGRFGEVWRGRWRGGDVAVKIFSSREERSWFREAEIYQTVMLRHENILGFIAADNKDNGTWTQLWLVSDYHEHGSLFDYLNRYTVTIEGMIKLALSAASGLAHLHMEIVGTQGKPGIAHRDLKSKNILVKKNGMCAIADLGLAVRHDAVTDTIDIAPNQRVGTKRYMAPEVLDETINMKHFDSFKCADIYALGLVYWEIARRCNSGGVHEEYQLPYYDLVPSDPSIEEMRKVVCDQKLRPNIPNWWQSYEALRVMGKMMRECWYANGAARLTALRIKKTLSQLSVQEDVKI
# Experimental: as §1
# p38δ = biological target: T8, p38δ (Homo sapiens, UniProt O15264)
# T8 construct: purchased Nanosyn (enzymatic panel); SGC in-house recombinant human kinases (DSF panel); Invitrogen (ALK1-6)
# T8 sequence (O15264 1-365): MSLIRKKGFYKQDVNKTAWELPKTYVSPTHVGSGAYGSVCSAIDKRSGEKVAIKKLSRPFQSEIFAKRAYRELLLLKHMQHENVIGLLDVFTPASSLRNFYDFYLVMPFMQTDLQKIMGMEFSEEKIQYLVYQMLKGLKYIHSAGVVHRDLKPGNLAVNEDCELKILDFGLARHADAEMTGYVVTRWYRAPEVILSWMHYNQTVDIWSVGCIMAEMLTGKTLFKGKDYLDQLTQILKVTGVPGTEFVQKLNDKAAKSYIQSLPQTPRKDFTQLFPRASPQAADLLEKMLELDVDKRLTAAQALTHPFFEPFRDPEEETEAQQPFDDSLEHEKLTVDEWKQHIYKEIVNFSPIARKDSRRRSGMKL
# Experimental: as §1
# NEK1 = biological target: T9, NEK1 (Homo sapiens, UniProt Q96PY6)
# T9 construct: purchased Nanosyn (enzymatic panel); SGC in-house recombinant human kinases (DSF panel); Invitrogen (ALK1-6)
# T9 sequence (Q96PY6 1-1258): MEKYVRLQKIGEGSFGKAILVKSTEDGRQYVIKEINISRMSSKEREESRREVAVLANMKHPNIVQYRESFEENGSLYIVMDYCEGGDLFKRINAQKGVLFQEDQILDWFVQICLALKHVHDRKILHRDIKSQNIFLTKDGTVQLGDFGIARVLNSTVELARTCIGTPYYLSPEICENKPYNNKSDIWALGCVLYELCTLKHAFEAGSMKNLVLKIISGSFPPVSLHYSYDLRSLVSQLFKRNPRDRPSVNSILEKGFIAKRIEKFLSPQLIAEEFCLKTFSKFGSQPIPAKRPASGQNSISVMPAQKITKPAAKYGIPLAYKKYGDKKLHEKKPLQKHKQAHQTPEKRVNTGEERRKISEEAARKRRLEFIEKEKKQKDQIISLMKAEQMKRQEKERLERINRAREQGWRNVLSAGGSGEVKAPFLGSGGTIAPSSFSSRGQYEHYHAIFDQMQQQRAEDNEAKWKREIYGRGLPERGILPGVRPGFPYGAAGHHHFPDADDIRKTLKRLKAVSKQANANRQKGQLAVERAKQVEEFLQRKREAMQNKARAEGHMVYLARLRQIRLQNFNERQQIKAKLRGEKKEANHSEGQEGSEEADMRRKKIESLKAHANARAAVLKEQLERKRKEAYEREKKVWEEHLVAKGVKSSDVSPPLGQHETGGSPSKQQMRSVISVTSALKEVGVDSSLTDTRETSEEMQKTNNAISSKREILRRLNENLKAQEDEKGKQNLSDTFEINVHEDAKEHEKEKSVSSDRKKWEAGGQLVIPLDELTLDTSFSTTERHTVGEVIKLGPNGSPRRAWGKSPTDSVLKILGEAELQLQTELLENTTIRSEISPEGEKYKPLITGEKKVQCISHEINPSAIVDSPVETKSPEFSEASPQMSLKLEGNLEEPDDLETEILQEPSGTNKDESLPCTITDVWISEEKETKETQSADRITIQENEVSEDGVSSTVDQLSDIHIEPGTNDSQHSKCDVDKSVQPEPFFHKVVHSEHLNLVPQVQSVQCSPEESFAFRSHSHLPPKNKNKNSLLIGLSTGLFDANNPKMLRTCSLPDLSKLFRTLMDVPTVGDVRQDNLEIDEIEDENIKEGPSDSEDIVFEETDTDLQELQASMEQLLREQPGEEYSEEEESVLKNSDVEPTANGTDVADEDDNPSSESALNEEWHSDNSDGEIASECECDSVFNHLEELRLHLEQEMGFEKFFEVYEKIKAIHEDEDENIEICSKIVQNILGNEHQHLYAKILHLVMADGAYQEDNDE
# Experimental: as §1
# VRK2 = biological target: T10, VRK2 (Homo sapiens, UniProt Q86Y07)
# T10 construct: purchased Nanosyn (enzymatic panel); SGC in-house recombinant human kinases (DSF panel); Invitrogen (ALK1-6)
# T10 sequence (Q86Y07 whole entry): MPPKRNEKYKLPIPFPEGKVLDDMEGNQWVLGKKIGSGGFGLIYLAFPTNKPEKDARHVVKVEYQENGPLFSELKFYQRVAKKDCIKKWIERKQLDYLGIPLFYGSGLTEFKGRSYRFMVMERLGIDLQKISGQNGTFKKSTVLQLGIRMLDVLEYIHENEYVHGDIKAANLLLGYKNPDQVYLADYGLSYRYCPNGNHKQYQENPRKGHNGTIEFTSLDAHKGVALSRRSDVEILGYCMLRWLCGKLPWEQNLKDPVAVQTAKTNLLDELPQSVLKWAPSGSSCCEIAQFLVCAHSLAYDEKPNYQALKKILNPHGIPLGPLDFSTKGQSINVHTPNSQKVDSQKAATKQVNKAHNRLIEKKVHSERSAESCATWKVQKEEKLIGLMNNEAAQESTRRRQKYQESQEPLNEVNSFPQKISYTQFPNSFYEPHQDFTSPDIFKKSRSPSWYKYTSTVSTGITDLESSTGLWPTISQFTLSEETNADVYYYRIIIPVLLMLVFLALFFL
# Experimental: as §1
# T1 sequence (O75716 whole entry): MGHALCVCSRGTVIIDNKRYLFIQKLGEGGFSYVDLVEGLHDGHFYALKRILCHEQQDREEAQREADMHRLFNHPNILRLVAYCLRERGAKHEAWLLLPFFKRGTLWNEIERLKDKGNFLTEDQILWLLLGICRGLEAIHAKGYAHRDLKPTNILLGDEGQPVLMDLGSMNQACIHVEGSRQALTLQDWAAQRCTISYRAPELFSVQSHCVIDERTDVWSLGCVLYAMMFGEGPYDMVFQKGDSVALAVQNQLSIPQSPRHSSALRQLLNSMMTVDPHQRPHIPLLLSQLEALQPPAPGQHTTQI
ΔTm at 10 µM (MPSK1) [°C],ΔTm at 10 µM (AMPKα2) [°C],ΔTm at 10 µM (MST3) [°C],ΔTm at 10 µM (JNK1) [°C],ΔTm at 10 µM (SLK) [°C],ΔTm at 10 µM (CLK2) [°C],ΔTm at 10 µM (ALK4) [°C],ΔTm at 10 µM (p38δ) [°C],ΔTm at 10 µM (NEK1) [°C],ΔTm at 10 µM (VRK2) [°C],Structure (SMILES)
0.3,1.2,0.3,0.2,1,0,8.2,-0.2,0.2,0.6,"COc1cc(-c2cc(-c3cccc(O)c3)cnc2N)cc(OC)c1OC [K02288, 3-[6-amino-5-(3,4,5-trimethoxy-phenyl)-pyridin-3-yl]-phenol]"
5.3,7.1,4.6,0,1.6,5,6.1,0,0.1,0.2,c1cc(-c2cnn3cc(-c4ccc(OCCN5CCCCC5)cc4)cnc23)ccn1 [Dorsomorphin]

Structure (SMILES),ΔTm at 10 µM (MPSK1) [°C],ΔTm at 10 µM (AMPKα2) [°C],ΔTm at 10 µM (MST3) [°C],ΔTm at 10 µM (JNK1) [°C],ΔTm at 10 µM (SLK) [°C],ΔTm at 10 µM (CLK2) [°C],ΔTm at 10 µM (ALK4) [°C],ΔTm at 10 µM (p38δ) [°C],ΔTm at 10 µM (NEK1) [°C],ΔTm at 10 µM (VRK2) [°C]
c1ccc2c(-c3cnn4cc(-c5ccc(N6CCNCC6)cc5)cnc34)ccnc2c1 [LDN-193189],5.3,8.3,7.9,0.5,1.2,3.3,11,-0.4,0.2,-0.2
